Measurements published in patent publication US9783536B2, “Nitrogen-containing heterocyclic compound or salt thereof” (FUJIFILM Corporation, priority 2013, dated 2017).
Read-outs that look alike come from different tables or passages of the source.

Key:
[1] = biological target: T1, human PI3Kα protein (Homo sapiens, UniProt P42336); experiment: PI3Kα enzyme assay (ADP-Glo); format: biochemical; details: read-out: PI3Kα enzyme inhibitory activity
T1 construct: purchased Carna Biosciences, Inc; host or cells: baculovirus expression system
T1 sequence (P42336 whole entry): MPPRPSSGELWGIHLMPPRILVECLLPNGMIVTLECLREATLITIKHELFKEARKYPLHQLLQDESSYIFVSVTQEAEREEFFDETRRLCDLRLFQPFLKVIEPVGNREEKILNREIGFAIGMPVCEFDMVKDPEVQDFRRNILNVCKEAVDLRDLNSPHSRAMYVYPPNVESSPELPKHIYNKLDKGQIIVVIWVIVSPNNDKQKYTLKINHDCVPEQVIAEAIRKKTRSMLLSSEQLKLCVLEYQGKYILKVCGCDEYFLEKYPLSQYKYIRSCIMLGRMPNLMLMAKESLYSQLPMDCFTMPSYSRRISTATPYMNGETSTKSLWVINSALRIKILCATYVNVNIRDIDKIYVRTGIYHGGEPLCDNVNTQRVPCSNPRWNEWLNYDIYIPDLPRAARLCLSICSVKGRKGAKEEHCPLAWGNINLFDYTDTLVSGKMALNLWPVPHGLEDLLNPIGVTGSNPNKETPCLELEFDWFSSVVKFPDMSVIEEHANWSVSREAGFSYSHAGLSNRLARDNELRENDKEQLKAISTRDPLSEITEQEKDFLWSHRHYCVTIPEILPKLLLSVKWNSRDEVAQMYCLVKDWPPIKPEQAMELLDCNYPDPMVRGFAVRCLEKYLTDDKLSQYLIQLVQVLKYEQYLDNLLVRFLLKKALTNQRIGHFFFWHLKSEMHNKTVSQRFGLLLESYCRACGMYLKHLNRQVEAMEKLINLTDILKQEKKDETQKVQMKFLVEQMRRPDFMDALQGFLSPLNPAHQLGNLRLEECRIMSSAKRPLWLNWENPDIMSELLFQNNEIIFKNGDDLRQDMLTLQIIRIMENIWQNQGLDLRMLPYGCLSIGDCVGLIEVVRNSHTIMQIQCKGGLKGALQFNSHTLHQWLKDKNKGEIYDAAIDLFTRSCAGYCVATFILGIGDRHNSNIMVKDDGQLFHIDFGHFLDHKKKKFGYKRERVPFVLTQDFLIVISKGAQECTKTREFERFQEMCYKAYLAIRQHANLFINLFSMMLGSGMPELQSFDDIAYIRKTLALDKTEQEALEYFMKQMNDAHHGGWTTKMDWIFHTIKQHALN
T1 sequence (P27986 whole entry partner): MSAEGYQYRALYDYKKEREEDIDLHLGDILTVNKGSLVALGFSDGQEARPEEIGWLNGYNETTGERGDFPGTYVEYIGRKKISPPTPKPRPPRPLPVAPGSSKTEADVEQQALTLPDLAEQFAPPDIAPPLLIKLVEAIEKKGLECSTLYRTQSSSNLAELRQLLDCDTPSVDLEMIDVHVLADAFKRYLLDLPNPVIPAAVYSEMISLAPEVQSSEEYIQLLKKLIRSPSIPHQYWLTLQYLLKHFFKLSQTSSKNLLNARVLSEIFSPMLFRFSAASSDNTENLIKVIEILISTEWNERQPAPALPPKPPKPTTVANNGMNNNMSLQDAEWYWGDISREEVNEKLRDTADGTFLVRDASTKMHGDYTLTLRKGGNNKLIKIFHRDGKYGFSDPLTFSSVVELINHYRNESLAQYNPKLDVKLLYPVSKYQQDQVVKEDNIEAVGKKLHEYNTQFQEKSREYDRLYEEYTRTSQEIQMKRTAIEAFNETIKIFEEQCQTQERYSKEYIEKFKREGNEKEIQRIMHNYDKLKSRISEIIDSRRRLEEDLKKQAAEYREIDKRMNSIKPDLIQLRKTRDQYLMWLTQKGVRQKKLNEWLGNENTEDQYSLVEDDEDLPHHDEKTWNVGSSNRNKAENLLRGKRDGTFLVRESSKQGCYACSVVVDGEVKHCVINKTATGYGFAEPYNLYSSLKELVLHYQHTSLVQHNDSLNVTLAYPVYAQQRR
Procedure, shortened: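 Biotinylated human PI3Kα (baculovirus-expressed, 4.5 nmol/L) pre-incubated 15 min with compound in Tris-HCl pH 7.5, MgCl2, BSA; reaction 60 min at 25° C with 50 μmol/L PIP2 and 100 μmol/L ATP final. ADP quantified by ADP-Glo luminescence; IC50 calculated.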

[2] = biological target: T2, GST fusion human ERK2 protein (Homo sapiens, UniProt P28482); experiment: ERK2 enzyme assay (2); format: biochemical; details: read-out: ERK2 enzyme inhibitory activity (2)
T2 construct: purchased Carna Biosciences, Inc; host or cells: E. coli expression system
T2 sequence (P28482 whole entry, the tested form may be a part): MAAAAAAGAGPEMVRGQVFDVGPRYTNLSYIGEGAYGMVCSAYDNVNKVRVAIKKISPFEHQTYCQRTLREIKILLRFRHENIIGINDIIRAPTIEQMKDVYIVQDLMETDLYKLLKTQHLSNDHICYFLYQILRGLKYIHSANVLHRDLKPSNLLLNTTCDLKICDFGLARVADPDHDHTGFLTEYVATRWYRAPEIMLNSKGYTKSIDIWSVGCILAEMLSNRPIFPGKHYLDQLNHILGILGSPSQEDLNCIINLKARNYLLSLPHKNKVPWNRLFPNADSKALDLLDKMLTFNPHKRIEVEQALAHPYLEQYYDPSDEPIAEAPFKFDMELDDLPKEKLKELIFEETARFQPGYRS
Procedure, shortened: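 IC50 values come from mobility-shift measurement of phosphorylated versus unphosphorylated 5-FAM peptide substrate after EDTA quench. Beforehand, compound and 1.25 nmol/L E. coli-expressed GST–human ERK2 stood 15 min at room temperature (pH 7.5), then 1 mmol/L ATP and 4.25 μmol/L substrate (final) were added for 120 min at 25 °C.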

[3] = system: CHO-K1 cells; experiment: CHO cell toxicity test; format: cell-based, Chinese hamster; details: Cricetulus griseus; CHO-K1 cells, 24 hours culture with compound, CellTiter-Glo; read-out: IC50 value (concentration at which the number of viable cells was suppressed to 50% or less)
Experimental: In a CHO cell toxicity test, the following was used.
Cell: CHO-K1 cells (derived from Chinese hamster ovary) Test medium: F-12 MEDIUM+FCS (manufactured by Biowest) having a final concentration of 2%
Detection reagent: CELLTITER-GLO™ LUMINESCENT CELL VIABILITY ASSAY (trade name, manufactured by PROMEGA Corporation)
The CHO-K1 cells were seeded in a 96-well microplate for culture at 5,000 cells/well, and cultured in a CO2 incubator (37° C.) for 24 hours. An evaluation compound (final concentration: from 25.00 μmol/L to 0.20 μmol/L, common ratio: […]) was added thereto, followed by culturing for 24 hours, and the number of viable cells was calculated from emission intensity by CELLTITER-GLO™ (trade name, manufactured by PROMEGA Corporation). In the measurement of the emission intensity, VARIOSKAN FLASH (manufactured by Thermo Fisher Scientific Inc.) was used.
Inhibition ratio (%)=100−(A/B)×100
A: Emission intensity in the presence of a test compound
B: Emission intensity in the absence of a test compound

[4] = biological target: T2, GST fusion human ERK2 protein; experiment: ERK2 enzyme assay (1); format: biochemical; details: read-out: ERK2 enzyme inhibitory activity (1)
Procedure, shortened: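 IC50 derived from the proportion of phosphorylated 5-FAM peptide, separated from unphosphorylated peptide by microfluidic mobility shift. Compound was first preincubated 15 min at room temperature with 2.5 nmol/L kinase at pH 7.5, then 43.1 μmol/L ATP plus 4.25 μmol/L substrate reacted 120 min at 25 °C.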

[5] = 4.5 nmol/L PI3Kα, PIP2 50 μmol/L, ATP 100 μmol/L
[6] = 2.5 nmol/L ERK2, ATP 43.1 μmol/L

Structure (SMILES) | IC50 [1] | IC50 ([2]; ERK2 enzyme assay (2)) | IC50 [3] | IC50 [2] | IC50 [1, 5] | IC50 [4, 6] | IC50 ([2]; 1.25 nmol/L ERK2, ATP 1 mmol/L) | IC50 ([4]; ERK2 enzyme assay (1))
COC1CN(CCCn2cc(-c3cnc4ccc(Nc5cc(C(C)C)cnn5)nc4c3)cn2)C1 [Example 0630] | < 1000 nM | < 1000 nM | ≥ 25000 nM | – | – | – | – | –
CC(C)c1cnnc(Nc2ccc3ncc(-c4cnn(CC(F)CN5CCOCC5)c4)cc3n2)c1 (stereo not drawn) [Example 0733] | < 1000 nM | < 1000 nM | ≥ 25000 nM | – | – | – | – | –
CC(C)c1cnnc(Nc2ccc3ncc(-c4cnn(CCCS(C)(=O)=O)c4)cc3n2)c1 [Example 0550] | < 1000 nM | < 1000 nM | ≥ 25000 nM | – | – | – | – | –
CCCc1cnnc(Nc2ccc3ncc(-c4cn(C)nc4C)cc3n2)c1 [Example 0919] | < 1000 nM | – | ≥ 25000 nM | < 1000 nM | – | – | – | –
CC(C)c1cnnc(Nc2ccc3ncc(-c4cnn(Cc5cccc(N)c5)c4)cc3n2)c1 [Example 0712, 7-(1-(3-Aminobenzyl)-1H-pyrazol-4-yl)-N-(5-isopropylpyridazin-3-yl)-1,5-naphthyridine-2-amine] | < 1000 nM | < 1000 nM | ≥ 25000 nM | – | – | – | – | –
CC(C)c1cnnc(Nc2ccc3ncc(-c4cnn(CCCN5C[C@@H](C)N(C)[C@@H](C)C5)c4)cc3n2)c1 [Example 0426, N-(5-isopropylpyridazin-3-yl)-7-(1-(3-((3S,5R)-3,4,5-trimethylpiperazin-1-yl)propyl)-1H-pyrazol-4-yl)-1,5-naphthyridine-2-amine] | < 1000 nM | < 1000 nM | ≥ 25000 nM | – | – | – | – | –
Cn1cc(-c2cnc3ccc(Nc4cc(C5CCCC5)cnn4)nc3c2)c(CF)n1 [Example 0631, N-(5-cyclopentylpyridazin-3-yl)-7-(3-(fluoromethyl)-1-methyl-1H-pyrazol-4-yl)-1,5-naphthyridine-2-amine] | < 1000 nM | < 1000 nM | ≥ 25000 nM | – | – | – | – | –
CC(C)c1cnnc(Nc2ccc3ncc(-c4cnn(CCCN5CCO[C@H](C)C5)c4)cc3n2)c1 [Example 0645] | < 1000 nM | < 1000 nM | ≥ 25000 nM | – | – | – | – | –
CC(C)c1cnnc(Nc2ccc3ncc(-c4cnn(Cc5cocn5)c4)cc3n2)c1 [Example 0450] | < 1000 nM | < 1000 nM | ≥ 25000 nM | – | – | – | – | –
c1ncc(OCCCN2CCCC2)cc1Nc1cnc2ccc(Nc3nnc(C4CCCC4)s3)nc2c1 [Example 0087] | – | – | – | – | < 1000 nM | < 1000 nM | < 1000 nM | –
c1ccc(Cc2nnc(Nc3ccc4ncc(-c5cnn(CCCN6CCCC6)c5)cc4n3)s2)nc1 [Example 0261] | < 1000 nM | < 1000 nM | – | – | – | – | – | < 1000 nM
OCCCN1CCC(n2cc(-c3cnc4ccc(Nc5nnc(C6CCCC6)s5)nc4c3)cn2)CC1 [Example 0337, 3-(4-(4-(6-((5-Cyclopentyl-1,3,4-thiadiazol-2-yl)amino)-1,5-naphthyridin-3-yl)-1H-pyrazol-1-yl)piperidin-1-yl)propan-1-ol] | < 1000 nM | < 1000 nM | – | – | – | – | – | < 1000 nM
c1ncc(Nc2cnc3ccc(Nc4nnc(C5CCCC5)s4)nc3c2)cn1 [Example 0089] | – | – | – | – | < 1000 nM | < 1000 nM | < 1000 nM | –
CC(C)c1cnnc(Nc2ccc3ncc(-c4cnn(CCCN5CCN(C)CC5)c4)cc3n2)c1 [Example 0021, N-(5-isopropylpyridazin-3-yl)-7-(1-(3-(4-methylpiperazin-1-yl)propyl)-1H-pyrazol-4-yl)-1,5-naphthyridine-2-amine] | – | – | – | – | < 1000 nM | < 1000 nM | < 1000 nM | –
Cc1nn(C)cc1-c1cnc2ccc(Nc3nnc(C(C)C)s3)nc2c1 [Example 0120] | – | – | – | – | < 1000 nM | < 1000 nM | < 1000 nM | –
COCc1nn(C)cc1-c1cnc2ccc(Nc3cc(C)cnn3)nc2c1 [Example 0161] | – | – | – | – | < 1000 nM | < 1000 nM | < 1000 nM | –
C[Si](C)(C)CCOCn1cc(-c2cnc3ccc(Nc4nncs4)nc3c2)cn1 [Example 0025, N-(7-(1-((2-(trimethylsilyl)ethoxy)methyl)-1H-pyrazol-4-yl)-1,5-naphthyridin-2-yl)-1,3,4-thiadiazole-2-amine] | – | – | – | – | 1000 to 10000 nM | < 1000 nM | < 1000 nM | –

Structure (SMILES) | IC50 [1] | IC50 ([2]; ERK2 enzyme assay (2)) | IC50 [3] | IC50 [2] | IC50 [1, 5] | IC50 [4, 6] | IC50 ([2]; 1.25 nmol/L ERK2, ATP 1 mmol/L) | IC50 ([4]; ERK2 enzyme assay (1))
Cn1cc(-c2cnc3ccc(Nc4nnc(C5CCCC5)s4)nc3c2Cl)cn1 [Example 0350, N-(8-chloro-7-(1-methyl-1H-pyrazol-4-yl)-1,5-naphthyridin-2-yl)-5-cyclopentyl-1,3,4-thiadiazole-2-amine] | 1000 to 10000 nM | < 1000 nM | – | – | – | – | – | < 1000 nM
CC(C)Cc1nn(C)cc1-c1cnc2ccc(Nc3nnc(C(C)C)s3)nc2c1 [Example 0138] | – | – | – | – | < 1000 nM | < 1000 nM | < 1000 nM | –
c1nc2ccc(Nc3cc(C4CCCCC4)cnn3)nc2cc1-c1cnn(CCCN2CCCC2)c1 [Example 0017] | – | – | – | – | < 1000 nM | < 1000 nM | < 1000 nM | –
CC(C)c1nnc(Nc2ccc3ncc(-c4cn(C)nc4-c4ccncc4)cc3n2)s1 [Example 0135] | – | – | – | – | < 1000 nM | < 1000 nM | 1000 to 10000 nM | –
c1cncc(Cc2nnc(Nc3ccc4ncc(-c5cnn(CCCN6CCCC6)c5)cc4n3)s2)c1 [Example 0262] | < 1000 nM | < 1000 nM | – | – | – | – | – | < 1000 nM
Cn1cc(-c2cnc3ccc(Nc4nnc(CS(C)(=O)=O)s4)nc3c2)cn1 [Example 0257, N-(7-(1-methyl-1H-pyrazol-4-yl)-1,5-naphthyridin-2-yl)-5-((methylsulfonyl)methyl)-1,3,4-thiadiazole-2-amine] | 1000 to 10000 nM | < 1000 nM | – | – | – | – | – | < 1000 nM
CC(C)c1cnnc(Nc2ccc3ncc(Nc4cncc(OCCN5CCOCC5)c4)cc3n2)c1 [Example 0159, N^2-(5-isopropylpyridazin-3-yl)-N^7-(5-(2-morpholinoethoxyl)pyridin-3-yl)-1,5-naphthyridine-2,7-diamine] | – | – | – | – | < 1000 nM | < 1000 nM | < 1000 nM | –
COCCn1cc(-c2cnc3ccc(Nc4cc(C(C)C)cnn4)nc3c2)cn1 [Example 0471, N-(5-isopropylpyridazin-3-yl)-7-(1-(2-methoxyethyl)-1H-pyrazol-4-yl)-1,5-naphthyridine-2-amine] | < 1000 nM | < 1000 nM | – | – | – | – | – | < 1000 nM
CN(c1cccnc1)c1cnc2ccc(Nc3nnc(C4CCCC4)s3)nc2c1 [Example 0071] | – | – | – | – | < 1000 nM | < 1000 nM | < 1000 nM | –
c1nc2ccc(Nc3nnc(CC4CCOC4)s3)nc2cc1-c1cnn(CCCN2CCCC2)c1 (stereo not drawn) [Example 0267] | < 1000 nM | < 1000 nM | – | – | – | – | – | < 1000 nM
CNC(=O)CCn1cc(-c2cnc3ccc(Nc4nnc(C5CCCC5)s4)nc3c2)cn1 [Example 0342] | < 1000 nM | < 1000 nM | – | – | – | – | – | < 1000 nM
OCCN1CCC(n2cc(-c3cnc4ccc(Nc5nnc(C6CCCC6)s5)nc4c3)cn2)CC1 [Example 0336, 2-(4-(4-(6-((5-cyclopentyl-1,3,4-thiadiazol-2-yl)amino)-1,5-naphthyridin-3-yl)-1H-pyrazol-1-yl)piperidin-1-yl)ethanol] | < 1000 nM | < 1000 nM | – | – | – | – | – | < 1000 nM
COCc1nnc(Nc2ccc3ncc(-c4cnn(C)c4)cc3n2)s1 [Example 0170, 5-(Methoxymethyl)-N-(7-(1-methyl-1H-pyrazol-4-yl)-1,5-naphthyridin-2-yl)-1,3,4-thiadiazole-2-amine] | – | – | – | – | 1000 to 10000 nM | < 1000 nM | < 1000 nM | –
CCc1nnc(Nc2ccc3ncc(-c4cnn(C)c4)cc3n2)s1 [Example 0163] | – | – | – | – | < 1000 nM | < 1000 nM | < 1000 nM | –
c1cc(Cc2nnc(Nc3ccc4ncc(-c5cnn(CCCN6CCCC6)c5)cc4n3)s2)ccn1 [Example 0266] | < 1000 nM | < 1000 nM | – | – | – | – | – | < 1000 nM
c1nc2ccc(Nc3nnc(C4CCCC4)s3)nc2cc1-c1cnn(CCCN2CCCC2)c1 [Example 0320] | < 1000 nM | < 1000 nM | – | – | – | – | – | < 1000 nM
